Consider ten molecules from patent publication US11512042B2, “Enamine compounds for absorbance of electromagnetic energy” (Commonwealth Scientific and Industrial Research Organisation, priority 2015, dated 2022).

Common to all, as to type: physicochemical
The nature of series [1]: Photostability protocol: thin film irradiated with xenon arc lamp. As to conditions: 1 hour xenon arc lamp, ratio of absorbance at λmax irradiated vs unirradiated, ^a = average of multiple measurements. How it is done: 1 mL of a 3% solution of the test compound (30 mg of test compound in 1 mL solvent) was prepared in a solvent mix made up of 50% EtOH and 25% capric/caprylic triglyceride and 25% C12-C15 alkyl benzoate. 50 μL of this solution (containing 1.5 mg of test compound) was added carefully to the centre of a glass microscope slide and the volatile components left to evaporate in the dark for at least 3 hours to give a liquid film. The prepared films were then exposed for 1 hour to an Eimac 150 W xenon arc lamp filtered through Pyrex (15 Amp supply current, samples 19 cm from the lamp) previously allowed to warm up for 15 minutes prior to sample exposure. The irradiation was performed in a fume cupboard where the air flow was sufficient to keep sample T<30° C. One hour's exposure represented a calculated radiation dose (using meter) of approximately 100 MED.
In order to calculate the photostability of the test compounds, the exposed slides were placed in a beaker and rinsed with 2×5 mL EtOH, 1×5 mL MeOH. The combined washings were then added to a 100 mL volumetric flask and made up to 100 mL total volume with methanol. The UV absorbance was then measured in a 10 mm cuvette. The percent stability is measured as the ratio of absorbance at λmax for the irradiated sample compared to the unirradiated sample.
The thin films are a good surrogate for testing the stability of a candidate in, for example, a sunscreen formulation as they use cosmetic emollients as solvent and are formed at cosmetically relevant concentrations.

The nature of series [2]: % transmission spectrum of 0.1% solution (breakthrough, steepness). As to conditions: for Steepness: distance in nm over which transmittance increases from 1 to 80%; for Breakthrough (1% T at 0.1%): value in nm where transmittance increases beyond 1%, 0.1% solution. In short, it runs like this: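 Transmission was recorded for 0.1% methanol solutions in a 2 mm cuvette. Breakthrough is the wavelength (nm) at which transmittance exceeds 1%; steepness is the nm span over which transmittance rises from 1 to 80%. Some values are averages of multiple measurements.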

A short description of series [3]: UV absorbance spectrum in solution (λmax, λcrit, extinction coefficients). As to conditions: for λcrit: critical wavelength; for E (1%, 1 cm): mass extinction coefficient; for ε: molar extinction coefficient, in M-1 cm-1 (unit assumed). In short, it runs like this: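 Spectra taken on 0.001% solutions in methanol, 10 mm path. Breakthrough is the wavelength where transmittance rises above 1%; steepness is the nm span over which transmittance goes from 1 to 80%.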

SMILES strings stand for the structures. Several values for one entry are separate records, joined by “and”; a condition that tells them apart may be missing. Equal values may be shown once.

`CN(C)C(=O)C(=O)/C(=C/N(c1ccccc1)c1ccccc1)c1ccccc1` [Compound 257]: the Photostability in series [1] was 85%. In series [2], the Steepness amounted to 32 nm and the “Breakthrough (1% T at 0.1%)” value turned out to be 394 nm. In series [3], the λmax is reported as 346 nm; the λcrit is 378 nm; the “E (1%, 1 cm)” value is reported as 382; the ε was found to be 14163.
With `CN(C)C(=O)C(=O)/C(=C\N1CCc2ccccc21)c1ccccc1` [Compound 258], the Photostability in series [1] amounted to 63%. Moreover, in series [2], the Steepness is 23 nm and the “Breakthrough (1% T at 0.1%)” value worked out at 409 nm. Besides, in series [3], the λmax worked out at 359 nm; the λcrit was determined as 384 nm; the “E (1%, 1 cm)” value was determined as 1045; the ε was 33443.
Take `CCN(/C=C(\C(=O)C(=O)N(C)C)c1ccccc1)c1ccccc1` [Compound 259]: the Photostability in series [1] is 66%. In series [2], the Steepness came to 34 nm and the “Breakthrough (1% T at 0.1%)” value is reported as 378 nm. For the same molecule, in series [3], the λmax turned out to be 326 nm; the λcrit was found to be 365 nm; the “E (1%, 1 cm)” value was determined as 724; the ε came out at 23336.
Turning to `CCOC(=O)C(=O)/C(=C/N(CC)CC)c1ccccc1` [Compound 260], the Photostability in series [1] was found to be 40%. Moreover, in series [2], the Steepness turned out to be 38 nm and the “Breakthrough (1% T at 0.1%)” value worked out at 363 nm. For the same molecule, in series [3], the λmax is 313 nm; the λcrit is on record as 352 nm; the “E (1%, 1 cm)” value came to 726; the ε is 19983.
Regarding `CCN(/C=C(/C(=O)C(=O)N(C)C)c1ccccc1)CC` [Compound 261], the Photostability in series [1] was found to be 63%. Further, in series [2], the Steepness turned out to be 28 nm and the “Breakthrough (1% T at 0.1%)” value amounted to 355 nm. For the same molecule, in series [3], the λmax is listed as 310 nm; the λcrit is 342 nm; the “E (1%, 1 cm)” value is reported as 844; the ε is recorded as 23144.
In the case of `CCN(/C=C(/C(=O)c1ccc(S(=O)(=O)N(C)C)cc1)c1ccccc1)c1ccccc1` [Compound 264], in series [1], the Photostability was determined as 20%. Besides, in series [2], the Steepness stood at 46 nm and the “Breakthrough (1% T at 0.1%)” value was 403 nm. Further, in series [3], the λmax is given as 340 nm; the λcrit came out at 381 nm; the “E (1%, 1 cm)” value stood at 433; the ε worked out at 18791.
As for `CC(C)(C)OC(=O)C(=O)/C(=C/N1CCc2ccccc21)c1ccccc1` [Compound 267], the Photostability in series [1] is on record as 76%. In series [2], the Steepness worked out at 32 nm and the “Breakthrough (1% T at 0.1%)” value came out at 417 nm. Also, in series [3], the λmax came to 366 nm; the λcrit was 389 nm; the “E (1%, 1 cm)” value was 940; the ε is on record as 32824.
Take `CCN(/C=C(/C(=O)c1ccccc1)c1ccccc1)CC` [Compound 268]: in series [1], the Photostability turned out to be 10%. In addition, in series [2], the Steepness was found to be 48 nm and the “Breakthrough (1% T at 0.1%)” value is reported as 374 nm. For the same molecule, in series [3], the λmax amounted to 312 nm; the λcrit worked out at 360 nm; the “E (1%, 1 cm)” value is listed as 656; the ε is 18293.
Consider `COC(=O)c1ccc2c(c1)CCN2/C=C(/C(=O)C(=O)OC(C)(C)C)c1ccccc1` [Compound 269], for which, in series [1], the Photostability was 94% and 94^a % and 98% and 91%. In series [2], the Steepness came to 26 nm and the “Breakthrough (1% T at 0.1%)” value was 419 nm. In series [3], the λmax is recorded as 374 nm; the λcrit amounted to 391 nm; the “E (1%, 1 cm)” value came to 1033; the ε was determined as 42074.
Regarding `CC(C)(C)OC(=O)C(=O)/C(=C/N(c1ccccc1)c1ccccc1)c1ccccc1` [Compound 270], in series [1], the Photostability came out at 89%. Also, in series [2], the Steepness is reported as 35 nm and the “Breakthrough (1% T at 0.1%)” value came out at 400 nm. Besides, in series [3], the λmax is 349 nm; the λcrit turned out to be 381 nm; the “E (1%, 1 cm)” value is 551; the ε came out at 22023.
